Values of other authors, collected in patent US6645986B2 (Pfizer Products, Inc., priority 2000, dated 2003).
Structures can show the parent of a compound that is named as a salt.

Conditions: compared with the anhydrous mesylate salt

In the case of `C[C@@H]([C@@H](O)c1ccc(O)cc1)N1CCC(O)(c2ccccc2)CC1` [mesylate salt trihydrate, (1S,2S)-1-(4-hydroxyphenyl)-2-(4-hydroxy-4-phenylpiperidin-1-yl)-1-propanol mesylate trihydrate], the “stability of crystalline form” value is listed as “more stable crystalline form than the anhydrous mesylate salt”.
